Experimental data from US20240350522A1, “HYGROMYCIN A FOR TREATMENT OF DISEASES AND INFECTIONS” (FLIGHTPATH BIOSCIENCES, INC., priority 2021, published 2024).
Where “and” joins values, the source holds several entries; their conditions need not be identical. Identical values can stand only once. Like-named read-outs stand apart in the source and are kept apart here.

Experiments:
Assay type in all cases: cell-based
[1] = test system: Fusobacterium nucleatum (ATCC 25586); test: MBC of Hyg A against F. nucleatum ATCC 25586; conditions: for MBC: ATCC25586
[2] = test system: Fusobacterium nucleatum (ATCC 25586); test: MIC of Hyg A against F. nucleatum ATCC 25586; conditions: ATCC25586
[3] = test system: Treponema pallidum pallidum Chicago strain; test: T. pallidum susceptibility assay, co-culture with Sf1Ep cells, tp0574 (T47) qPCR after 7 days; conditions: for Mean T47 copies/μL, Avg. / Mean T47 copies/μL, experimental values: 7 days; for Mean T47 copies/μL, Avg.: average of 8 replicates; for Mean T47 copies/μL, experimental values: replicate wells
Treponema denticola [4] = test: MIC of Hyg A against Treponema denticola strains (broth dilution, phenol red); conditions: for MIC: Treponema denticola
Treponema denticola [5] = test: MBC of Hyg A against Treponema denticola strains; conditions: for MBC: Treponema denticola

- MIC:MBC ratio ([1]; F. nucleatum 25586): 1.0
- MIC ([2]; Fusobacterium nucleatum ATCC 25586, read-out: MIC): ~1 µg/mL
- MIC ([2]; Fusobacterium nucleatum, F. nucleatum 25586, experiment 1, read-out: MIC (μg/ml) 1): 1 µg/mL
- MIC ([2]; Fusobacterium nucleatum, F. nucleatum 25586, experiment 2, read-out: MIC (μg/ml) 2): 1 µg/mL
- MIC (Treponema denticola [4]; ATCC35404, ATCC strain 35404, range, read-out: MIC): 0.5 to 5 µg/mL
- MIC (Treponema denticola [4]; ATCC35405, Type strain ATCC 35405, read-out: MIC): 0.2 µg/mL
- MIC (Treponema denticola [4]; T. denticola 33520, experiment 1, read-out: MIC (μg/ml) 1): 1 µg/mL
- MIC (Treponema denticola [4]; T. denticola 33520, experiment 2, read-out: MIC (μg/ml) 2): 1 µg/mL
- MIC (Treponema denticola [4]; T. denticola 33521, experiment 1, read-out: MIC (μg/ml) 1): 0.5 µg/mL
- MIC (Treponema denticola [4]; T. denticola 33521, experiment 2, read-out: MIC (μg/ml) 2): 2 µg/mL
- MIC (Treponema denticola [4]; T. denticola 35404, experiment 1, read-out: MIC (μg/ml) 1): 0.5 to 1 µg/mL
- MIC (Treponema denticola [4]; T. denticola 35404, experiment 2, read-out: MIC (μg/ml) 2): 5 µg/mL
- MIC (Treponema denticola [4]; T. denticola 35405, experiment 1, read-out: MIC (μg/ml) 1): 0.2 µg/mL
- MIC (Treponema denticola [4]; T. denticola 35405, experiment 2, read-out: MIC (μg/ml) 2): 0.2 µg/mL
- MIC (Treponema denticola [4]; T. denticola ASLM, experiment 1, read-out: MIC (μg/ml) 1): 0.5 µg/mL
- MIC (Treponema denticola [4]; T. denticola ASLM, experiment 2, read-out: MIC (μg/ml) 2): 1 µg/mL
- MIC (Treponema denticola [4]; T. denticola H1-T, experiment 1, read-out: MIC (μg/ml) 1): 0.5 µg/mL
- MIC (Treponema denticola [4]; T. denticola H1-T, experiment 2, read-out: MIC (μg/ml) 2): 0.5 µg/mL
- MIC (Treponema denticola [4]; T. denticola OTK, experiment 1, read-out: MIC (μg/ml) 1): 0.5 µg/mL
- MIC (Treponema denticola [4]; T. denticola OTK, experiment 2, read-out: MIC (μg/ml) 2): 1 µg/mL
- MIC (Treponema denticola [4]; T. denticola SP44, experiment 1, read-out: MIC (μg/ml) 1): 1 µg/mL
- MIC (Treponema denticola [4]; T. denticola SP44, experiment 2, read-out: MIC (μg/ml) 2): 1 µg/mL
- MIC (Treponema denticola [4]; T. denticola US Trep, experiment 1, read-out: MIC (μg/ml) 1): 0.5 µg/mL
- MIC (Treponema denticola [4]; T. denticola US Trep, experiment 2, read-out: MIC (μg/ml) 2): 0.5 µg/mL
- MIC (Treponema denticola [4]; across T. denticola strains, read-out: MIC values for Treponema denticola strains, typical): ~0.5 µg/mL
- MIC (Treponema denticola [4]; low passage clinical isolate ASLM, read-out: MIC (Hyg A sensitivity)): 0.2 µg/mL
- MIC (Treponema denticola [4]; low passage clinical isolate SP44, read-out: MIC (Hyg A sensitivity)): 1 µg/mL
- MIC values for Treponema denticola strains, range (Treponema denticola [4]; across T. denticola strains): 0.2 to 1.0 µg/mL
- MIC:MBC ratio (Treponema denticola [5]; T. denticola 33520): 0.2-1.0
- MIC:MBC ratio (Treponema denticola [5]; T. denticola 33521): 0.3-1.0
- MIC:MBC ratio (Treponema denticola [5]; T. denticola 35404): 0.1-1.0
- MIC:MBC ratio (Treponema denticola [5]; T. denticola 35405): 0.2-0.4
- MIC:MBC ratio (Treponema denticola [5]; T. denticola ASLM): 0.5-1.0
- MIC:MBC ratio (Treponema denticola [5]; T. denticola H1-T): 1.0
- MIC:MBC ratio (Treponema denticola [5]; T. denticola OTK): 0.5-1.0
- MIC:MBC ratio (Treponema denticola [5]; T. denticola SP44): 0.5-2.0
- MIC:MBC ratio (Treponema denticola [5]; T. denticola US Trep): 0.5
SMILES: CC(=O)[C@H]1O[C@@H](Oc2ccc(/C=C(\C)C(=O)N[C@@H]3[C@H](O)[C@@H](O)[C@H]4OCO[C@H]4[C@@H]3O)cc2O)[C@@H](O)[C@@H]1O [Hyg A, Hygromycin A]
- MBC ([1]; Fusobacterium nucleatum ATCC 25586, read-out: MBC): ~1 µg/mL
- MBC ([1]; Fusobacterium nucleatum, F. nucleatum 25586, experiment 1, read-out: MBC (μg/ml) 1): 1 µg/mL
- MBC ([1]; Fusobacterium nucleatum, F. nucleatum 25586, experiment 2, read-out: MBC (μg/ml) 2): 1 µg/mL
- lowest concentration effective against growth (no significant difference to higher concentrations) ([3]; Chicago strain, ANOVA p<0.05): 0.12 µg/mL
- Mean T47 copies/μL, Avg. ([3]; Hyg A 0.03 μg/ml): 7184 copies/μL
- Mean T47 copies/μL, experimental values ([3]; Hyg A 0.03 μg/ml): 2531 copies/μL and 7304 copies/μL and 8369 copies/μL and 7552 copies/μL and 6189 copies/μL and 9263 copies/μL and 8429 copies/μL and 7834 copies/μL
- Mean T47 copies/μL, Avg. ([3]; Hyg A 0.06 μg/ml): 1814 copies/μL
- Mean T47 copies/μL, experimental values ([3]; Hyg A 0.06 μg/ml): 1336 copies/μL and 1882 copies/μL and 1716 copies/μL and 2225 copies/μL and 1815 copies/μL and 2044 copies/μL and 2022 copies/μL and 1476 copies/μL
- Mean T47 copies/μL, Avg. ([3]; Hyg A 0.12 μg/ml): 674 copies/μL
- Mean T47 copies/μL, experimental values ([3]; Hyg A 0.12 μg/ml): 449 copies/μL and 775 copies/μL and 689 copies/μL and 776 copies/μL and 788 copies/μL and 670 copies/μL and 704 copies/μL and 545 copies/μL
- Mean T47 copies/μL, Avg. ([3]; Hyg A 0.24 μg/ml): 576 copies/μL
- Mean T47 copies/μL, experimental values ([3]; Hyg A 0.24 μg/ml): 360 copies/μL and 447 copies/μL and 513 copies/μL and 890 copies/μL and 775 copies/μL and 636 copies/μL and 565 copies/μL and 424 copies/μL
- Mean T47 copies/μL, Avg. ([3]; Hyg A 0.48 μg/ml): 457 copies/μL
- Mean T47 copies/μL, experimental values ([3]; Hyg A 0.48 μg/ml): 341 copies/μL and 475 copies/μL and 462 copies/μL and 614 copies/μL and 548 copies/μL and 509 copies/μL and 425 copies/μL and 280 copies/μL
- Mean T47 copies/μL, Avg. ([3]; Hyg A 0.96 μg/ml): 397 copies/μL
- Mean T47 copies/μL, experimental values ([3]; Hyg A 0.96 μg/ml): 271 copies/μL and 393 copies/μL and 520 copies/μL and 528 copies/μL and 402 copies/μL and 418 copies/μL and 372 copies/μL and 273 copies/μL
- Mean T47 copies/μL, Avg. ([3]; Hyg A 1.92 μg/ml): 451 copies/μL
- Mean T47 copies/μL, experimental values ([3]; Hyg A 1.92 μg/ml): 301 copies/μL and 422 copies/μL and 453 copies/μL and 556 copies/μL and 585 copies/μL and 546 copies/μL and 464 copies/μL and 279 copies/μL
- Mean T47 copies/μL, Avg. ([3]; Hyg A 3.84 μg/ml): 493 copies/μL
- Mean T47 copies/μL, experimental values ([3]; Hyg A 3.84 μg/ml): 324 copies/μL and 470 copies/μL and 612 copies/μL and 487 copies/μL and 485 copies/μL and 532 copies/μL and 618 copies/μL and 412 copies/μL
- MIC (Treponema denticola [4]; ATCC35404, ATCC 35404, strain most tolerant, read-out: MIC): 5 µg/mL
- type of effect (bactericidal/bacteriostatic) (Treponema denticola [5]; T. denticola strains, from MBC/MIC ratio): bactericidal
- MBC (Treponema denticola [5]; ATCC35404, ATCC 35404, strain most tolerant, read-out: MBC): 5 µg/mL
- MBC (Treponema denticola [5]; T. denticola 33520, experiment 1, read-out: MBC (μg/ml) 1): 5 µg/mL
- MBC (Treponema denticola [5]; T. denticola 33520, experiment 2, read-out: MBC (μg/ml) 2): 1 µg/mL
- MBC (Treponema denticola [5]; T. denticola 33521, experiment 1, read-out: MBC (μg/ml) 1): 0.5 µg/mL
- MBC (Treponema denticola [5]; T. denticola 33521, experiment 2, read-out: MBC (μg/ml) 2): 2 µg/mL
- MBC (Treponema denticola [5]; T. denticola 35404, experiment 1, read-out: MBC (μg/ml) 1): 5 µg/mL
- MBC (Treponema denticola [5]; T. denticola 35404, experiment 2, read-out: MBC (μg/ml) 2): > 5 µg/mL
- MBC (Treponema denticola [5]; T. denticola 35405, experiment 1, read-out: MBC (μg/ml) 1): 1 µg/mL
